From ChEMBL document CHEMBL1221224, “Inhibition of Wnt signaling by Dishevelled PDZ peptides” (Nat Chem Biol, 2009) come the findings set out here.

Each structure is given as a SMILES string. The source made the active and inactive calls. The calls are words filed in the database; no cut-off is given here. Where a SMILES comes first, the peptide text is derived from it.

The target of series [1] is T1, Segment polarity protein dishevelled homolog DVL-2 (Homo sapiens, UniProt O14641).
T1 sequence (O14641 whole entry): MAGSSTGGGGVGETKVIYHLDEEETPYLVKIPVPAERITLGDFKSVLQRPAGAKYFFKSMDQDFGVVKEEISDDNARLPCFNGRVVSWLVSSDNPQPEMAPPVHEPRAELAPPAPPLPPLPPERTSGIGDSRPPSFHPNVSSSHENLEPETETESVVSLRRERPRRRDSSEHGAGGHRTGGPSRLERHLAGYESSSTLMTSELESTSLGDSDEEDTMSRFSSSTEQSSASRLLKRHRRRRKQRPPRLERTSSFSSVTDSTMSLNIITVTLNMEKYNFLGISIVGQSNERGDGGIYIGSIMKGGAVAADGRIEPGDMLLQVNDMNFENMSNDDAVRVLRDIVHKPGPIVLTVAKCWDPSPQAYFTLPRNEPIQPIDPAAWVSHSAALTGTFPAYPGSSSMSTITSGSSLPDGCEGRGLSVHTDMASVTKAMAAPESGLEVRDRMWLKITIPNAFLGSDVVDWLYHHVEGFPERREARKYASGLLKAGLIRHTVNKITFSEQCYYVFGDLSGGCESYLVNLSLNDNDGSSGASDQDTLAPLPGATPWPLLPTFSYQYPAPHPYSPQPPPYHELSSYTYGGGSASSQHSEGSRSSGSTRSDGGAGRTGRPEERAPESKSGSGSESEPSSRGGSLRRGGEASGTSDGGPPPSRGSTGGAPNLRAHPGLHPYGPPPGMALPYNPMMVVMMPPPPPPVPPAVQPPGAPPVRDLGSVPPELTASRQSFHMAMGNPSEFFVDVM
Put plainly: (§1) Binding affinity at Dvl2 PDZ domain after 15 mins by fluorescence polarization assay. (In fluorescence polarisation assays a small probe gives low polarisation when free and higher when bound to something large.)

The nature of series [2]: Inhibition of Dvl mediated Wnt3a/TCF signaling in human HEK293S cells after 18 hrs by TOPglow reporter assay. A general note: A reporter such as luciferase makes a cellular process visible.
Series [3] in a line: Cytotoxicity in human HEK293S cells assessed as cell viability at 300 uM after 18 hrs by differential interference contrast microscopy. The class given is cell-based.
Series [4] in a line: Cytotoxicity in human HEK293S cells assessed as cell viability at 100 uM after 18 hrs by differential interference contrast microscopy. It is filed as cell-based.
Series [5] deals with T2, Segment polarity protein dishevelled homolog DVL-2 (Homo sapiens) (UniProt O14641).
T2 sequence (whole entry): T1 sequence (O14641 whole entry)
Described as §1.

Series [6] can be described thus: Drug uptake in human HEK293S cells after 1 hr by time-lapse microscopy. It is filed as ADME, cell-based.
The target in series [7] is T3, Segment polarity protein dishevelled homolog DVL-1 (Homo sapiens) (UniProt O14640).
T3 sequence (whole entry): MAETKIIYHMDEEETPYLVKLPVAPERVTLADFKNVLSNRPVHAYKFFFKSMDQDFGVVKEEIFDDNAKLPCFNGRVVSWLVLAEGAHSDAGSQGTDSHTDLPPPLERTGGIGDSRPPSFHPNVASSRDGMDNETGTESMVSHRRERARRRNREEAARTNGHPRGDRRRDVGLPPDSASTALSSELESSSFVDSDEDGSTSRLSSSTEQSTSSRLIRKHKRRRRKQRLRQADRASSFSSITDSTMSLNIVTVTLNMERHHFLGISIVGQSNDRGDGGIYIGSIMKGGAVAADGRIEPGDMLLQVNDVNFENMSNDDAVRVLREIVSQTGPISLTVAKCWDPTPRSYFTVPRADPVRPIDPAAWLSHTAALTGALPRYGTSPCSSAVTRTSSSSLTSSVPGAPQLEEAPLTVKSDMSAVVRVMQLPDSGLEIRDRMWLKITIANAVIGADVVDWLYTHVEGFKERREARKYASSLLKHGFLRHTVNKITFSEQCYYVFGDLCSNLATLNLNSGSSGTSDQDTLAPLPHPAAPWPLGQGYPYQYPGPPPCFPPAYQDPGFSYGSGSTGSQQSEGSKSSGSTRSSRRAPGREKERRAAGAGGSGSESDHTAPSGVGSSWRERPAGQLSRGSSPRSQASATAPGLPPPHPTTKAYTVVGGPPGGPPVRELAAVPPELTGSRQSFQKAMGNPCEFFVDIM
Put plainly: Inhibition of Dvl1 overexpressed in human HEK293S assessed as inhibition of […]/TCF reporter signaling at 20 uM after 18 hrs by TOPglow reporter assay.

Series [8] in a line: Cytotoxicity in human HEK293S cells assessed as cell viability at 33 uM after 18 hrs by differential interference contrast microscopy. The class given is cell-based.
The target of series [9] is T4, Segment polarity protein dishevelled homolog DVL-3 (Homo sapiens) (UniProt Q92997).
T4 sequence (whole entry): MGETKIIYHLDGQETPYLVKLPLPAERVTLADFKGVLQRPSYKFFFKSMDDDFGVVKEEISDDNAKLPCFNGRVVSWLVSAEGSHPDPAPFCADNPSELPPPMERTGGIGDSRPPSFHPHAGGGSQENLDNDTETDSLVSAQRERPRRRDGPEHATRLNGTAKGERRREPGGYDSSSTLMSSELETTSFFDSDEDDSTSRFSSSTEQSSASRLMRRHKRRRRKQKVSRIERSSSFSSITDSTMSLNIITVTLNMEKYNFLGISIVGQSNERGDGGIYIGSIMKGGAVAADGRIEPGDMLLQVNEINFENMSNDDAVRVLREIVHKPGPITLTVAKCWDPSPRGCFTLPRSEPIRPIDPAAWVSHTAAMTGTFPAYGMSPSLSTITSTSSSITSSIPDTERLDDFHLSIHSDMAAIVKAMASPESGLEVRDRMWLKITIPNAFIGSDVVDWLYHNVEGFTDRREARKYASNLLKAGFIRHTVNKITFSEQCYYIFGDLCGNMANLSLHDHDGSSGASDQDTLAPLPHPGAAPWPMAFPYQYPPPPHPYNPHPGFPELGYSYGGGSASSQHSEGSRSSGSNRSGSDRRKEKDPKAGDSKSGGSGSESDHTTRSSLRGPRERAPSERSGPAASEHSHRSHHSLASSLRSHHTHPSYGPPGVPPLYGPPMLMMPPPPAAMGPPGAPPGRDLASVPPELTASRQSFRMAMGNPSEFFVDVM
Put plainly: Inhibition of Dvl3 overexpressed in human HEK293S assessed as inhibition of […]/TCF reporter signaling at 20 uM after 18 hrs by TOPglow reporter assay.

Series [10] has as its target T5, Catenin beta-1 (Homo sapiens) (UniProt P35222).
T5 sequence (whole entry): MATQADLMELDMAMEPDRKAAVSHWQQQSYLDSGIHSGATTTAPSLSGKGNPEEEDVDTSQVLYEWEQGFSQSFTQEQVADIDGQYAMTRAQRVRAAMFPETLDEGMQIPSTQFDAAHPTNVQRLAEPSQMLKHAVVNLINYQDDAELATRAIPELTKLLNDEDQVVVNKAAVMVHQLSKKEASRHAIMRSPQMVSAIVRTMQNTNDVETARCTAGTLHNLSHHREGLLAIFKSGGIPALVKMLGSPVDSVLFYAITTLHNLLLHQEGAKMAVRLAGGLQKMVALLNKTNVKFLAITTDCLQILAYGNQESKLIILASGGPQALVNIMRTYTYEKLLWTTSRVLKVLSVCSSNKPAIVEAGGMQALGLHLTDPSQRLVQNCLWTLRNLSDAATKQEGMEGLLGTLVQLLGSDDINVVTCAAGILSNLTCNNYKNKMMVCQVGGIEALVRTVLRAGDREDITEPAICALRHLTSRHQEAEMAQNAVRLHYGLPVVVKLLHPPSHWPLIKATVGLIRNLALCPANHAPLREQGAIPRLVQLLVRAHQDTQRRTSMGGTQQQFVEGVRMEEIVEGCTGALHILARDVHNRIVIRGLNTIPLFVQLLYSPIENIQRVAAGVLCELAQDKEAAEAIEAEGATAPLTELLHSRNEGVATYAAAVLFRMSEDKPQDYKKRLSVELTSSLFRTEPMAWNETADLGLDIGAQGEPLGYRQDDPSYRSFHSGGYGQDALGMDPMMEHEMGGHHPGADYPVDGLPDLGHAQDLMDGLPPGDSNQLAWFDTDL
Put plainly: Inhibition of […] mediated […]/TCF reporter signaling in human HEK293S at 20 uM after 18 hrs by TOPglow reporter assay. It is filed as functional.

The target of series [11] is T2, Segment polarity protein dishevelled homolog DVL-2 (Homo sapiens). Put plainly: Inhibition of Dvl2 overexpressed in human HEK293S assessed as inhibition of […]/TCF reporter signaling at 20 uM after 18 hrs by TOPglow reporter assay.
For series [12], the system named is HEK293. Put plainly: Inhibition of Dvl mediated Wnt3a signaling in human HEK293 cells assessed as […] accumulation at 10 uM after 18 hrs by Western blot method. The class given is cell-based.
Series [13] concerns HCT-15. Put plainly: Inhibition of Dvl mediated Wnt/TCF signaling in human HCT15 after 18 hrs by TOPglow reporter assay. It is filed as cell-based.
Series [14] addresses T4, Segment polarity protein dishevelled homolog DVL-3 (Homo sapiens). Put plainly: Binding affinity at Dvl3 in human HEK293S lysate after 15 mins by pulldown and Western blot assays. A general note: Immunoblotting shows a protein as a band on a membrane.

As a reminder, the Ki is a measure of affinity in units of concentration, obtained from inhibition or displacement. A higher Ki goes with weaker binding. `CC[C@H](C)[C@H](NC(=O)[C@H](CC(=O)O)NC(=O)[C@H](CO)NC(=O)[C@H](Cc1c[nH]c2ccccc12)NC(=O)[C@H](CC(C)C)NC(=O)[C@@H](NC(=O)[C@@H](NC(=O)[C@H](CCC(=O)O)NC(=O)CN)[C@@H](C)CC)C(C)C)C(=O)O` (H-GEIVLWSDI-OH): affinity in [1] was put at a Ki of 4.6 µM.
Usually IC50 stands for the midpoint of a concentration-inhibition curve. High values mean weaker potency in that assay, low ones greater potency in that assay. In series [2], `CCCCC(O)c1[nH]c2cc(C)c(C(=O)O)cc2c1CCc1ccccc1` (configuration not stated) came in with an IC50 of over 100 µM. Further, the Activity result in [3] and in [4] was “Toxic” in each case.
`NCCCC[C@H](NC(=O)[C@@H](N)Cc1c[nH]c2ccccc12)C(=O)N[C@@H](Cc1c[nH]c2ccccc12)C(=O)N[C@@H](Cc1ccc(O)cc1)C(=O)NCC(=O)N[C@@H](Cc1c[nH]c2ccccc12)C(=O)N[C@@H](Cc1ccccc1)C(=O)O` (H-WKWYGWF-OH) gave a Ki in series [1] of 0.7 µM.
Regarding `CC[C@H](C)[C@H](NC(=O)[C@H](Cc1c[nH]c2ccccc12)NC(=O)[C@@H](NC(=O)[C@H](CCC(=O)O)NC(=O)[C@H](CC(N)=O)NC(=O)CNC(=O)[C@@H](N)CO)C(C)C)C(=O)N[C@@H](CC(=O)O)C(=O)NCC(=O)N1CCC[C@H]1C(=O)O` (H-SGNEVWIDGP-OH), the result in [5] was Active.
As to `CC[C@H](C)[C@H](NC(=O)[C@H](CCCCN)NC(=O)[C@@H](NC(=O)[C@H](CCC(N)=O)NC(=O)[C@H](CCCNC(=N)N)NC(C)=O)[C@@H](C)CC)C(=O)N[C@@H](Cc1c[nH]c2ccccc12)C(=O)N[C@@H](Cc1ccccc1)C(=O)N[C@@H](CCC(N)=O)C(=O)N[C@@H](CC(N)=O)C(=O)N[C@@H](CCCNC(=N)N)C(=O)N[C@@H](CCCNC(=N)N)C(=O)N[C@@H](CCSC)C(=O)N[C@@H](CCCCN)C(=O)N[C@@H](Cc1c[nH]c2ccccc12)C(=O)N[C@@H](CCCCN)C(=O)N[C@@H](CCCCN)C(=O)NCC(=O)NCC(=O)NCC(=O)N[C@@H](CCC(=O)O)C(=O)N[C@H](C(=O)N[C@H](C(=O)N[C@@H](CC(C)C)C(=O)N[C@@H](Cc1c[nH]c2ccccc12)C(=O)N[C@@H](CO)C(=O)N[C@@H](CC(=O)O)C(=O)N[C@H](C(=O)N1CCC[C@H]1C(N)=O)[C@@H](C)CC)C(C)C)[C@@H](C)CC`, the Drug uptake result in series [6] is listed as “Active”. The inhibition result in [7], in series [9], in [11] and in [12] was “Active” each time. Moreover, the Activity result in series [8] is “Non-toxic”. The IC50 in [2] worked out at 11 µM. In addition, the inhibition result in series [10] and in [13] was “inactive” throughout. Besides, the outcome in series [14] was Active.
On to `CC[C@H](C)[C@H](NC(=O)[C@H](Cc1c[nH]c2ccccc12)NC(=O)CNC(=O)[C@H](Cc1ccc(O)cc1)NC(=O)[C@H](CC(=O)O)NC(=O)[C@H](CCCCN)NC(=O)[C@@H](N)Cc1c[nH]c2ccccc12)C(=O)N[C@@H](CC(=O)O)C(=O)O` (H-WKDYGWID-OH), for which, in series [1], the Ki was 1.2 µM.
